In patent US6355677B1, “Adrenoleukodystrophy treatments and drug screening” (The Johns Hopkins University, priority 1998, dated 2002):
Entries after “also recorded” stand apart in the source; their conditions may differ.

How the values were obtained:
Type in all cases: cell-based
[1] = test system: X-ALD human lymphoblastoid cells; assay: C24:0 β-oxidation ([1-14C]-C24:0 degradation); details: 5 mM 4PBA for 6 days
Protocol: (§1) Cell lines derived from X-ALD patients and X-ALD mice were grown in MEM (fibroblasts) or RPMI (lymphoblastoid cells) supplemented with fetal calf serum (10%), penicillin (100 U/ml), streptomycin (100 U/ml) and glutamine (2 mM). […] Cells in the second flask were grown without drug for the same length of time and served as controls. The media were changed every 3-4 days.
(§2) For VLCFA measurements, total lipids were extracted, converted to methyl esters, purified by TLC and subjected to capillary GC analysis as described. Duplicate assays were set up independently and were assayed on different days. C24:0 β-oxidation activity of human and mouse fibroblasts and human lymphoblastoid cells was determined by measuring their capacity to degrade [1-^14C]-C24:0 fatty acid (American Radiolabeled Chemicals, St. Louis, Mo.) to water-soluble products as described. Phytanic acid oxidation was measured as described. Cells were incubated with [2,3-^3H]-phytanic acid for 24 hours, and the release of ^3H-H2O to the aqueous medium was determined (activity in pmol/hr per mg protein).

[2] = test system: X-ALD human primary fibroblasts; assay: C24:0 β-oxidation ([1-14C]-C24:0 degradation); details: 5 mM 4PBA for 6 days
Protocol: as §1, §2

[3] = test system: X-ALD mouse primary fibroblasts; assay: C24:0 β-oxidation ([1-14C]-C24:0 degradation); details: 5 mM 4PBA for 6 days
Protocol: as §1, §2

[4] = test system: human primary fibroblasts; assay: Toxicity in cultured cells; details: data not shown
Excerpt: (§3) The genotypes of the X-ALD patients included midssense, nonsense, ftame shift and deletion mutations and all of the main clinical phenotypes.

[5] = test system: mouse primary fibroblasts; assay: Toxicity in cultured cells; details: data not shown
Excerpt: as §3

ALDP = assay: Semi-quantitative RT-PCR, mouse primary fibroblasts; details: normal fibroblasts, 5 mM, 2 days
Protocol: (§4) Semi-quantitative RT-PCR was done on the mRNA isolated from these cells (FIG. 1). […] In addition, the expression of acyl-CoA oxidase (AOX), the rate-limiting enzyme in VLCFA β-oxidation, was not affected. Although previous studies have reported that ALDR mRNA was not detectable in fibroblasts by either northern or RT-PCR analyses, those RT-PCR studies used about 66 ng of CDNA; we used about 250 ng of cDNA.
(§5) Total RNA from tissue culture cells (10^6-10^7 cells/sample) was isolated using TRizol Reagent™ (Life Technologies), treated with DNase I (100-200 units in 40 mM HC, 10mM NaC, 6 mM MgCl2, pH 7.3), incubated at 37° C. for 30 min, extracted with pheno/chloroform, and precipitated with isopropanol. cDNA was generated using MMLV reverse transcriptase (RT) (Life Technologies). PCR was done in the linear range of amplification (determined for each primerpair-cDNA combination). For each cDNA sample, a ‘cocktail’ was prepared, containing PCR buffer (Promega), 200 µM of each DNTP, 1.5 mM MgCl2, 250 ng cDNA, 0.25 U of Taq polymerase (Promega) and […]. The ‘cocktail’ was divided into separate tubes containing cDNA specific primers.
(§6) The PCR primers used are listed below. In the parentheses, h indicates human and m, mouse; this is followed by the gene name, product size and annealing temperature. For primer sequences, F is forward and R is reverse. (hALD, 249, 64° C.) F: 5′-[…]-3′, R: 5′-[…]-3′; (mALD, 526, 59° C.) F: 5′-[…]-3′, R: 5′-[…]-3′; (hPMP70, 405, 60° C.) F: 5′-[…]-3′, R: 5′-[…]-3′; (mPMP70, 405, 60° C.) F: 5′-TTr[…]-3′, R: 5′-[…]-3′; (hALDR, 312, 56° C.) F: 5-[…]-3′, R: 5′-[…]-3′; (mALDR, 711, 57° C.) F: 5′-[…]-3′, R: 5′-[…]-3′; (hPMP69, 319, 60° C.) F: 5′-[…]-3′, R: 5-[…]-3′; (hAOX, 405, 60° C.) F: 5′-[…]-3′, R: 5′[…]-3′; (mAOX, 247, 60° C.) F: 5′-[…]r[…]-3′, R: 5′-[…]-3′; (hPPARα, 347, 60° C.) F: 5-[…]r[…]rCC-3′, R: 5′-[…]-3′; (mFPPARa, 268, 60° C.) F: 5′-GATTr[…]-TGAGG-3, R: 5′-[…]-3′; (hPex11α 658, 55° C.) F: 5-[…]-3′, R: 5′-[…]-3′; (mpex11α, 720, 55° C.) F: 5′-[…]r[…]-3′, R: 5′-[…]-3′; (β-Actin, 460, 62° C.) F:5′-[…]-3′, R: 5′-[…]-3, (glyceraldehyde 3-phosphate dehydrogenase (GAPDH), 528, 62° C.) F: 5′-[…]-3, R: 5′-[…]-3′. β-Actin and GAPDH primers were used for both human and mouse analyses.

ALDR mRNA = assay: as above; details: normal and X-ALD fibroblasts, 5 mM, 2 days, relative to GAPDH
Protocol: as §4, §5, §6

PMP70 = assay: as above; details: X-ALD or normal fibroblasts, 5 mM, 2 days
Protocol: as §4, §5, §6

acyl-CoA oxidase (AOX) = assay: as above; details: 5 mM, 2 days
Protocol: as §4, §5, §6

[6] = test system: human primary fibroblasts; assay: Phytanic acid oxidation ([2,3-3H]-phytanic acid); details: 5 mM, 10 days
Protocol: Phytanic acid oxidation occurs exclusively in the peroxisomal matrix and can therefore serve as a marker for peroxisomal function. […] SCP2 is a 15-kDa protein located exclusively in the peroxisomal matrix.
as §2

O=C(O)CCCc1ccccc1 [4-PBA, 4-Phenyl butyrate]
C24:0 β-oxidation, Increase (treated over untreated) [1]: twofold to threefold | C24:0 β-oxidation, Treated (mean specific activity) [1]: 0.18 ± 0.03 nmol/hr per mg protein | C24:0 β-oxidation, Increase (treated over untreated) [2]: twofold to threefold | C24:0 β-oxidation, Treated (mean specific activity) [2]: 0.39 ± 0.07 nmol/hr per mg protein | C24:0 β-oxidation, Increase (treated over untreated) [3]: twofold to threefold | C24:0 β-oxidation, Treated (mean specific activity) [3]: 0.28 ± 0.03 nmol/hr per mg protein | Toxic concentration [4]: exceeding 7.5 mM | Toxic concentration [5]: exceeding 7.5 mM | ALDP expression level (ALDP): little, if any, effect | ALDR mRNA level (ALDR mRNA): substantially increased; also recorded: substantial increase | PMP70 expression level (PMP70): little, if any, effect | AOX expression (acyl-CoA oxidase (AOX)): unchanged; also recorded: not affected | Increase in phytanic acid oxidation ([6]; X-ALD human primary fibroblasts): twofold | Increase in phytanic acid oxidation ([6]; normal human primary fibroblasts): twofold
